Laboratory results reported in ChEMBL document CHEMBL1641373, “Trishomocubane as a scaffold for the development of selective dopamine transporter (DAT) ligands” (Bioorg Med Chem Lett, 2011).

How the values were obtained:
[1] = target: T1, 5-hydroxytryptamine receptor 2B (Homo sapiens, UniProt P41595); assay: Inhibition of 5HT2B receptor
[2] = target: Muscarinic acetylcholine receptor M5 (Homo sapiens, UniProt P08912); assay: Inhibition of muscarinic M5 receptor
Histamine H1 receptor [3] = target: T2, Histamine H1 receptor (Homo sapiens, UniProt P35367); assay: Inhibition of H1 receptor
T2 sequence (P35367 whole entry): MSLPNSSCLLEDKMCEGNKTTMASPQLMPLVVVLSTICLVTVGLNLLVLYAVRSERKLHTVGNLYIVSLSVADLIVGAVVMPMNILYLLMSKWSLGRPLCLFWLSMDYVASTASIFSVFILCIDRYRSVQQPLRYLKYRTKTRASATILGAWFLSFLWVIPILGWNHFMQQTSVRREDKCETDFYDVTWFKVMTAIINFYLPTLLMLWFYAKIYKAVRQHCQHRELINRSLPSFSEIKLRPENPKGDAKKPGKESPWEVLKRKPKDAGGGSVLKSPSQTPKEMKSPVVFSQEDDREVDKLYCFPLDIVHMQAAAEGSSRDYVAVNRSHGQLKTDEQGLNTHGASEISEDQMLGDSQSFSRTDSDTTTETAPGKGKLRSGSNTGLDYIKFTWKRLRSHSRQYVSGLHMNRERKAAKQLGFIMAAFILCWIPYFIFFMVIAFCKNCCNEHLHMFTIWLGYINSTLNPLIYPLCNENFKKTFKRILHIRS

[4] = target: Muscarinic acetylcholine receptor M2 (Homo sapiens, UniProt P08172); assay: Inhibition of muscarinic M2 receptor
[5] = target: Muscarinic acetylcholine receptor M4 (Homo sapiens, UniProt P08173); assay: Inhibition of muscarinic M4 receptor
D(1B) dopamine receptor [6] = target: T3, D(1B) dopamine receptor (Homo sapiens, UniProt P21918); assay: Inhibition of dopamine D5 receptor at 10 uM
T3 sequence (P21918 whole entry): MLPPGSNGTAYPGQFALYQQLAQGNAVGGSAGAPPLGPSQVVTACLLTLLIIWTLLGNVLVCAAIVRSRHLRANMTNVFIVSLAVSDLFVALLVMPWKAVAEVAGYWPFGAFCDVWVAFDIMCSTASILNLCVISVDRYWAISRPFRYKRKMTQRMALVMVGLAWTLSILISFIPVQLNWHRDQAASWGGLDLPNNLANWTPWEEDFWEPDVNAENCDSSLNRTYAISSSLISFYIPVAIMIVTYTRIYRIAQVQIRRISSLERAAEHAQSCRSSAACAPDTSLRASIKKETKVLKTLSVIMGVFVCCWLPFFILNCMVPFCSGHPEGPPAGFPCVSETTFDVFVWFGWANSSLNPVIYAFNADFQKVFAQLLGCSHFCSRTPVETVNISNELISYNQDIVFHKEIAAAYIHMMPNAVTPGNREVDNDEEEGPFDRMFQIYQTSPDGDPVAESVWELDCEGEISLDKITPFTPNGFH

[7] = target: Alpha-2A adrenergic receptor (Homo sapiens, UniProt P08913); assay: Inhibition of alpha2A adrenergic receptor
[8] = Displacement of [3H]-ditolyl guanidine from sigma 2 receptor in rat PC12 cells; format: cell-based; settings: pc-12
[9] = target: Beta-3 adrenergic receptor (Homo sapiens) (UniProt P13945); assay: Inhibition of beta3 adrenergic receptor at 10 uM
Sequence of Beta-3 adrenergic receptor (Homo sapiens) (P13945 whole entry, looked up): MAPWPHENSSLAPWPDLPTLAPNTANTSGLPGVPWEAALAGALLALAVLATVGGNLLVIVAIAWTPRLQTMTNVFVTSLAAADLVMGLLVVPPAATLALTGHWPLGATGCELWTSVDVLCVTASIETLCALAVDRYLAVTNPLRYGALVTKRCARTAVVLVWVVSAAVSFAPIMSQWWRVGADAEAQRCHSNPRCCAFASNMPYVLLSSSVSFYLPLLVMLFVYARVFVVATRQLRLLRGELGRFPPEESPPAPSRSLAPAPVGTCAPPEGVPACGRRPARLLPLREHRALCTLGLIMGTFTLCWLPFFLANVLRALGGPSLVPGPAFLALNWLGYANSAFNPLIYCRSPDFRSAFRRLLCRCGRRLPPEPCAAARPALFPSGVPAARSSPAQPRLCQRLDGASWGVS

[10] = target: Beta-2 adrenergic receptor (Homo sapiens) (UniProt P07550); assay: Inhibition of beta2 adrenergic receptor at 10 uM
Sequence of Beta-2 adrenergic receptor (Homo sapiens) (P07550 whole entry, looked up): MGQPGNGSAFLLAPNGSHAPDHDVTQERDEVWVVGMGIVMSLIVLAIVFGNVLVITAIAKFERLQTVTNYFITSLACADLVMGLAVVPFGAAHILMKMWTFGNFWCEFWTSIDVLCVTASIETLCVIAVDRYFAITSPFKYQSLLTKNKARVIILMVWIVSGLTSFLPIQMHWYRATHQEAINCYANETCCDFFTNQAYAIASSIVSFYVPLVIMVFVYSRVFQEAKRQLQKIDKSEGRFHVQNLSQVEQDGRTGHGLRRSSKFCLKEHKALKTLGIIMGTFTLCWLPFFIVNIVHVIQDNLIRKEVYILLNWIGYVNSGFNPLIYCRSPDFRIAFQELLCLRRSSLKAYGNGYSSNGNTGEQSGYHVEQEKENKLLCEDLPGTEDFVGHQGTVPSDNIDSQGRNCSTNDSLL

[11] = target: 5-hydroxytryptamine receptor 6 (Homo sapiens, UniProt P50406); assay: Inhibition of 5HT6 receptor
[12] = target: T4, 5-hydroxytryptamine receptor 2A (Homo sapiens, UniProt P28223); assay: Inhibition of 5HT2A receptor
T4 sequence (P28223 whole entry): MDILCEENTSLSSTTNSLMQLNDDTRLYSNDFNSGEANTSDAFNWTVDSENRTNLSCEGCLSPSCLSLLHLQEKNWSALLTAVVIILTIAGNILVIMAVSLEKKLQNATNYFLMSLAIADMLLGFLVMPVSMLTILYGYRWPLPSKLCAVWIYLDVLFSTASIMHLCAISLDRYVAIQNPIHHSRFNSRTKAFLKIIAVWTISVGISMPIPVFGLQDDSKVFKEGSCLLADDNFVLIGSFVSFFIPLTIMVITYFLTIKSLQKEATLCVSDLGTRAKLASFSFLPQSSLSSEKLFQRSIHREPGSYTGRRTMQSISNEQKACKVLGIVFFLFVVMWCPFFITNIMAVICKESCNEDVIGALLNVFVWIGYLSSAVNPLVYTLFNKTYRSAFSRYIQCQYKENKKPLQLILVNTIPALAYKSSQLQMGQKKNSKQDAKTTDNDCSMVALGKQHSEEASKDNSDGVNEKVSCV

[13] = target: Sodium-dependent noradrenaline transporter (Homo sapiens, UniProt P23975); assay: Displacement of [3H]nisoxetine from human NET expressed in HEK cells; format: cell-based, HEK293; settings: for inhibition: HEK293, concentration not given here
Sequence of Sodium-dependent noradrenaline transporter (P23975 whole entry): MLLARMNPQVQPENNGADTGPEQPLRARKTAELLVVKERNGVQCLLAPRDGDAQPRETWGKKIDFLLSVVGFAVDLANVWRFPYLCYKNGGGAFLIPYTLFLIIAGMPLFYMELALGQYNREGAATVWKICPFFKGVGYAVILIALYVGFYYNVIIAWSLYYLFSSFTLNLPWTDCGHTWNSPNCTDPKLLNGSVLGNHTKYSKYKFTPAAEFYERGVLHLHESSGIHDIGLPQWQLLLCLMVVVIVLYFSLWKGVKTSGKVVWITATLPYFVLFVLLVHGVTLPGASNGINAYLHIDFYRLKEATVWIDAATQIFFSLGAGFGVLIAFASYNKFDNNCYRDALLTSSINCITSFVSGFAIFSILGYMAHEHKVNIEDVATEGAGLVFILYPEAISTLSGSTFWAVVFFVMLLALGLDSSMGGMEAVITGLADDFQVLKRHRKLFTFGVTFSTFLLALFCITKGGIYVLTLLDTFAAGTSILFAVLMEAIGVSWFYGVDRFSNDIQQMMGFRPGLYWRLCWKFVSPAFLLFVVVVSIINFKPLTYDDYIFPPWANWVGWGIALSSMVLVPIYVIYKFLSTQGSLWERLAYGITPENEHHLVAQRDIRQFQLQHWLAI

[14] = target: T5, Muscarinic acetylcholine receptor M3 (Homo sapiens, UniProt P20309); assay: Inhibition of muscarinic M3 receptor
Target sequence in this assay (P20309 whole entry): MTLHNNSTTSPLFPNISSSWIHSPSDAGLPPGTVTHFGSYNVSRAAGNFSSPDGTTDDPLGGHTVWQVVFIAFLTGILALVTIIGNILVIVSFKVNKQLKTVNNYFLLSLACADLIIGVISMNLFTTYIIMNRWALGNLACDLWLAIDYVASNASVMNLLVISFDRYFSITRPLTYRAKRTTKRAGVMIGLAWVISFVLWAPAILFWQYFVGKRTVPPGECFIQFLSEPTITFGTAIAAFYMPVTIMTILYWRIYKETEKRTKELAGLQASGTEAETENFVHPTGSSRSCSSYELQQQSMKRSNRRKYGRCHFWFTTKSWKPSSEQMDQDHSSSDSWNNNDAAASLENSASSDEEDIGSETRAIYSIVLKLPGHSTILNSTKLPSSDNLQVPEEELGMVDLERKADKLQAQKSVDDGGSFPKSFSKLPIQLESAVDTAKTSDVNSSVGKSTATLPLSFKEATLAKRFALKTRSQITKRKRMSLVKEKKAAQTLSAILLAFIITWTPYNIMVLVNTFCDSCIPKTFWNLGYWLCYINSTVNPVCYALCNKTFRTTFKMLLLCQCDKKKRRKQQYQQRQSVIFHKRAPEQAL

[15] = target: 5-hydroxytryptamine receptor 5A (Homo sapiens) (UniProt P47898); assay: Inhibition of 5HT5A receptor at 10 uM
Sequence of 5-hydroxytryptamine receptor 5A (Homo sapiens) (P47898 whole entry): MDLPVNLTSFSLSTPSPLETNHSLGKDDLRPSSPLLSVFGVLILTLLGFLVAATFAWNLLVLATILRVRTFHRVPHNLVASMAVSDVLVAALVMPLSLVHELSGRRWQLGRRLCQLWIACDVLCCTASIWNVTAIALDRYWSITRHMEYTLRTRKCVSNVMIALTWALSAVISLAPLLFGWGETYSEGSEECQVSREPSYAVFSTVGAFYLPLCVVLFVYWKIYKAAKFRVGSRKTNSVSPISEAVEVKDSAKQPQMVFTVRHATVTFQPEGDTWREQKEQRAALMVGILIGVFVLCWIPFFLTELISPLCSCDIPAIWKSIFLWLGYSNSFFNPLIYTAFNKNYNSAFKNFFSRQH

[16] = target: T5, Muscarinic acetylcholine receptor M3; assay: Inhibition of muscarinic M3 receptor at 10 uM
Target sequence in this assay (P20309 whole entry, looked up): as the sequence (P20309 whole entry) above

[17] = target: Alpha-2C adrenergic receptor (Homo sapiens, UniProt P18825); assay: Inhibition of Alpha-2C adrenergic receptor
Sequence of Alpha-2C adrenergic receptor (P18825 whole entry): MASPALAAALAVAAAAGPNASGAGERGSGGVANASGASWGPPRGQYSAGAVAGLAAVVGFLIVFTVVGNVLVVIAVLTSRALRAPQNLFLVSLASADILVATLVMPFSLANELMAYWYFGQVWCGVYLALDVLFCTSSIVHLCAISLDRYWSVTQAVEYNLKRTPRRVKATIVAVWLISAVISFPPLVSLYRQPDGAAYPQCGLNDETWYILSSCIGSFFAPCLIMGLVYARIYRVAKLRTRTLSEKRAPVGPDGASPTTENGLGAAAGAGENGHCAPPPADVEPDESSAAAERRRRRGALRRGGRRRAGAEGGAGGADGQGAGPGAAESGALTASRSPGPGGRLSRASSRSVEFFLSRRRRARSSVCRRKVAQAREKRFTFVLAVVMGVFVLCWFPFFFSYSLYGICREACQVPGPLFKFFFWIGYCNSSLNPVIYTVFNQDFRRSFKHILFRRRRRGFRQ

[18] = target: T6, Muscarinic acetylcholine receptor M5 (Homo sapiens) (UniProt P08912); assay: Inhibition of muscarinic M5 receptor at 10 uM
T6 sequence (whole entry): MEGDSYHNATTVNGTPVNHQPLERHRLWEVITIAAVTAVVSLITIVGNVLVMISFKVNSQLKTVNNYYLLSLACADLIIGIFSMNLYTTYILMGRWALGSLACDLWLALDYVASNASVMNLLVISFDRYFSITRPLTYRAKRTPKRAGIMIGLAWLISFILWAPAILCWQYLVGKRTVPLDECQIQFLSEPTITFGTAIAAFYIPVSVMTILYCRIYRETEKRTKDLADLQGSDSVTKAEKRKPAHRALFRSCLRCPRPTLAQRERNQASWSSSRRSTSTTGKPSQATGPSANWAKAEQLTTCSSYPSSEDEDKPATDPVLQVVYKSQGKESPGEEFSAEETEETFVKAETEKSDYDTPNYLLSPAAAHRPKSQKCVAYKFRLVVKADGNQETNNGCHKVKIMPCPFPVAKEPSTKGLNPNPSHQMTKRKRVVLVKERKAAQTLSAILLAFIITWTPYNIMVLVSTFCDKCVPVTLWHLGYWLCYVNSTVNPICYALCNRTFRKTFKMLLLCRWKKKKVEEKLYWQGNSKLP

Rattus norvegicus = organism: Rattus norvegicus; assay: Inhibition of BZP receptor in rat brain; format: tissue-based; settings: concentration not given here
[19] = target: Alpha-2B adrenergic receptor (Homo sapiens) (UniProt P18089); assay: Inhibition of alpha2B adrenergic receptor at 10 uM
[20] = target: T7, Muscarinic acetylcholine receptor M2 (Homo sapiens) (UniProt P08172); assay: Inhibition of muscarinic M2 receptor at 10 uM
T7 sequence (whole entry): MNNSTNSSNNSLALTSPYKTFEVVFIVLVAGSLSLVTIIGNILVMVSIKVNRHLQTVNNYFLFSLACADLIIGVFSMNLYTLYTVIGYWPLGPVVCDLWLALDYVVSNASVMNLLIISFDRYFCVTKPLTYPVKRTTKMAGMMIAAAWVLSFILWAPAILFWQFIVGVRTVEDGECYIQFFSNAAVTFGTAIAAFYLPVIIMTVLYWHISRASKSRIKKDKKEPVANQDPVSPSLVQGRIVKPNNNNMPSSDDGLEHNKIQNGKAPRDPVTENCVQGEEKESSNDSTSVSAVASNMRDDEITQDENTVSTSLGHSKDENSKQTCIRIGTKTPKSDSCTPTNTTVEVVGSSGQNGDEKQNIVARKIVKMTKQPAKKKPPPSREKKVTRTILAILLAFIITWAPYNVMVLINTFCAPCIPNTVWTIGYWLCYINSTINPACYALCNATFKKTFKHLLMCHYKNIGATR

[21] = Inhibition of GABAA receptor at 10 uM
D(3) dopamine receptor = D(3) dopamine receptor (Homo sapiens, UniProt P35462); assay: Inhibition of dopamine D3 receptor at 10 uM
D(1B) dopamine receptor [22] = target: T3, D(1B) dopamine receptor; assay: Inhibition of dopamine D5 receptor
[23] = target: T4, 5-hydroxytryptamine receptor 2A; assay: Inhibition of 5HT2A receptor at 10 uM
[24] = target: T1, 5-hydroxytryptamine receptor 2B; assay: Inhibition of 5HT2B receptor at 10 uM
[25] = target: Alpha-2C adrenergic receptor (Homo sapiens) (UniProt P18825); assay: Inhibition of Alpha-2C adrenergic receptor at 10 uM
Sequence of Alpha-2C adrenergic receptor (Homo sapiens) (P18825 whole entry): as the sequence (P18825 whole entry) above

Histamine H2 receptor = Histamine H2 receptor (Homo sapiens, UniProt P25021); assay: Inhibition of H2 receptor at 10 uM
Histamine H1 receptor [26] = target: T2, Histamine H1 receptor; assay: Inhibition of H1 receptor at 10 uM

T1 sequence (P41595 whole entry): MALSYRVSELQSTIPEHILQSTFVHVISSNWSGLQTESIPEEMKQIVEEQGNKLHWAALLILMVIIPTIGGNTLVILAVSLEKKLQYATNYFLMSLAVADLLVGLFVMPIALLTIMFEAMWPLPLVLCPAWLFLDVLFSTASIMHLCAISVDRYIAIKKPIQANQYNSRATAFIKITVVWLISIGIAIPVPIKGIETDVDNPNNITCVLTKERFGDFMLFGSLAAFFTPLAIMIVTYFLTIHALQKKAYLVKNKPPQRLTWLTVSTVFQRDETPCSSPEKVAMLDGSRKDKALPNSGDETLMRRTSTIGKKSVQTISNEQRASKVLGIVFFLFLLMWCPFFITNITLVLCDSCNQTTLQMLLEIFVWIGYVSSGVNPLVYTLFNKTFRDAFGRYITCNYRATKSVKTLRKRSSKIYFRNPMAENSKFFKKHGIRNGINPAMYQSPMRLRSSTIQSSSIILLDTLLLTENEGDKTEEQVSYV

Fc1cccc(CCN[C@H]2C3C4CC5C6C4CC3C6C52)c1 (some centres undefined)
Ki [1]: 6980 nM
Ki [2]: 1830 nM
Ki (Histamine H1 receptor [3]): 2380 nM
Ki [4]: 2290 nM
Ki [5]: 705 nM
inhibition (D(1B) dopamine receptor [6]): < 50%
Ki [7]: 7610 nM
Ki [8]: 6 nM
inhibition [9]: < 50%
inhibition [10]: < 50%
Ki [11]: > 10000 nM
Ki [12]: 6020 nM
Ki [13]: 3620 nM
Ki [14]: 1390 nM
inhibition [15]: < 50%

CN(CCc1cccc(F)c1)[C@H]1C2C3CC4C5C3CC2C5C41 (some centres undefined)
Ki [1]: 6090 nM
inhibition [16]: < 50%
Ki [17]: 2070 nM
inhibition [18]: < 50%
Ki [8]: 39 nM
inhibition (Rattus norvegicus): < 50%
inhibition [19]: < 50%
inhibition [9]: < 50%
inhibition [20]: < 50%
inhibition [10]: < 50%
Ki [12]: > 10000 nM
inhibition [13]: < 50%
inhibition [21]: < 50%
inhibition [15]: < 50%

CN(Cc1cccc(F)c1)[C@H]1C2C3CC4C5C3CC2C5C41 (some centres undefined)
inhibition (D(3) dopamine receptor): < 50%
inhibition [16]: < 50%
Ki (D(1B) dopamine receptor [22]): > 10000 nM
inhibition [18]: < 50%
inhibition [23]: < 50%
Ki [8]: 117 nM
inhibition [24]: < 50%
inhibition (Rattus norvegicus): < 50%
inhibition [19]: < 50%
inhibition [9]: < 50%
inhibition [25]: < 50%
inhibition [20]: < 50%
inhibition [10]: < 50%
inhibition [13]: < 50%
inhibition [21]: < 50%
inhibition (Histamine H2 receptor): < 50%
inhibition [15]: < 50%

Fc1cccc(CN[C@H]2C3C4CC5C6C4CC3C6C52)c1 (some centres undefined)
inhibition [16]: < 50%
inhibition [18]: < 50%
inhibition (D(1B) dopamine receptor [6]): < 50%
inhibition [23]: < 50%
Ki [8]: 19 nM
inhibition [24]: < 50%
inhibition (Histamine H1 receptor [26]): < 50%
inhibition [9]: < 50%
inhibition [25]: < 50%
inhibition [20]: < 50%
inhibition [10]: < 50%
Ki [13]: 5880 nM
inhibition [15]: < 50%
